Test results from paper PMC6094957, “BdorOR88a Modulates the Responsiveness to Methyl Eugenol in Mature Males of Bactrocera dorsalis (Hendel)” (Frontiers in Physiology, 2018).

Columns and labels:
BdorOR88a/BdorOrco = molecular target: T1, BdorOR88a/BdorOrco (Bactrocera dorsalis, UniProt A0A0G2UKI5); test: two-electrode voltage clamp, Xenopus oocytes; type: cell-based
T1 construct: gene OR88a; full-length OR88a (1,245 nt, 414 aa) co-expressed with BdorOrco from pCS2+ cRNAs in Xenopus laevis oocytes; with Odorant receptor coreceptor
T1 sequence (A0A0G2UKI5 1-414): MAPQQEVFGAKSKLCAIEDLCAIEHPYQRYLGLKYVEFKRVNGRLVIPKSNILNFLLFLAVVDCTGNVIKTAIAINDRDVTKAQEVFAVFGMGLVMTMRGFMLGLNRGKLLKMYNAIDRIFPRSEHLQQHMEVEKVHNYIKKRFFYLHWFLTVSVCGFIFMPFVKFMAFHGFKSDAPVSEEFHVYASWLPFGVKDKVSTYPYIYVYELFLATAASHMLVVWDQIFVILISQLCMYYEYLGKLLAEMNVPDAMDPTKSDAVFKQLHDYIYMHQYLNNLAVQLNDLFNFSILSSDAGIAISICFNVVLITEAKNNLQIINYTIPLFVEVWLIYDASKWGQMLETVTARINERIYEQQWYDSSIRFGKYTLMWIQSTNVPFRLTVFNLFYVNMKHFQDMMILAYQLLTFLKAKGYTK
T1 sequence (B2Z9Z0 1-473 partner): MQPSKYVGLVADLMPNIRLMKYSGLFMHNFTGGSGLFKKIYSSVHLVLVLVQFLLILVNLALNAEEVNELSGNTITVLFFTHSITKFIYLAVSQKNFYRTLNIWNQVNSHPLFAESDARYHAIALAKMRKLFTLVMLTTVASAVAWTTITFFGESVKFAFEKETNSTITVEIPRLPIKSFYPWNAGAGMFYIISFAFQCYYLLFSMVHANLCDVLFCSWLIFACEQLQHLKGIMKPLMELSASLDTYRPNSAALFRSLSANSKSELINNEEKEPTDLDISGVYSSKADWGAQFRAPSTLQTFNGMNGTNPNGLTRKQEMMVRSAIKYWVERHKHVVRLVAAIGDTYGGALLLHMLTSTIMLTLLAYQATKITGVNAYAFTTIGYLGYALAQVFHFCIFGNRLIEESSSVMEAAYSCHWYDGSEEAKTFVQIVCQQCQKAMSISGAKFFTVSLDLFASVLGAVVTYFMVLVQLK
Excerpt: two-electrode voltage clamp, Xenopus oocytes on BdorOR88a/BdorOrco | half the maximal effective concentration

BdorOR63a-1/BdorOrco = molecular target: T2, BdorOR63a-1/BdorOrco (Bactrocera dorsalis, UniProt A0A0G2UMW5); test: two-electrode voltage clamp, Xenopus oocytes; type: cell-based; conditions: weak response at 1 × 10^-3 M ME; co-expressed BdorOrco; holding potential -80 mV; Ringer's pH 7.6
T2 construct: gene OR63a-1; full-length OR63a-1 (1,248 nt, 415 aa) co-expressed with BdorOrco from pCS2+ cRNAs in Xenopus laevis oocytes; with Odorant receptor coreceptor
T2 sequence (A0A0G2UMW5 1-415): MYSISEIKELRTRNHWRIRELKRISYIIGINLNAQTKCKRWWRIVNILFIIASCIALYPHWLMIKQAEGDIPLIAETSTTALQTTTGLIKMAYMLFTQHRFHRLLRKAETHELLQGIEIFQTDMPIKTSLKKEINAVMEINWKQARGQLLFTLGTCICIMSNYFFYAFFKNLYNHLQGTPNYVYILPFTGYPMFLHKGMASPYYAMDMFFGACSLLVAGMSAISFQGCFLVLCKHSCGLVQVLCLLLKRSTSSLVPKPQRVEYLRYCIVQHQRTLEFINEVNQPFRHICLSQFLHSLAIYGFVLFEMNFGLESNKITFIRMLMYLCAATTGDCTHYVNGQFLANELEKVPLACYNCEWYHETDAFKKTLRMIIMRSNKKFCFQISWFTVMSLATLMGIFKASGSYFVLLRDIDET
T2 sequence (B2Z9Z0 1-473 partner): T1 sequence (B2Z9Z0 1-473 partner)

EC50 (BdorOR88a/BdorOrco): 28.3 µM | current at 1 × 10^-3 M (BdorOR63a-1/BdorOrco): ~ 30 nA
SMILES: C=CCc1ccc(OC)c(OC)c1 [ME, methyl eugenol]
